In US10946096B2, “Nitrobenzaldehyde proton release for manipulation of cellular acidosis” (priority 2014, dated 2021):
“And” between values parts separate entries of the source, which are not always exact repeats. Equal values may be shown once.

Columns and labels:
[1] = tested on: PC12 cells; test: Optical recording of pHi (DCFDA) in PC12 cells before/after UV flash photolysis of NBA; type: cell-based, Rat
Description: Calibrating and Measuring pH with DCFDA. For ratiometric pH, measurements, PC12 cells were loaded with the pH-sensitive dye Carboxy-DCFDA (10 μM in rat aCSF). Nigericin was titrated to a pH of 2.0, 4.0, 5.0, 6.0, 7.0 or 8.0. The emitted fluorescence of DCFDA was recorded from cells at each of the titrated pH solutions. […] Each ratio from individual cells (n=421) was recorded for each pH. A curve of best fit was created (R^2=93.02) and used for the conversion of fluorescence to pHi.
Optic Recording of pHi PC12. DCFDA stock solution was diluted to a concentration of 10 μM in a 3 mL rat aCSF solution. PC12 cells were flashed every 30 second at 495/440 nm for a duration of 900/700 ms, respectively, at 40× magnification and 2 seconds at each wavelength under the 10× magnification. Cells were washed three times with rat aCSF after 10 minutes and prior to recording fluorescence to monitor steady state.
NBA Loading for Focal Acidification of PC12. Seventy-five μL of NBA stock solution was mixed in 3 mL of rat aCSF and bath applied to PC12 cells for 10 minutes. After bath application, cells were washed a minimum of three times with rat aCSF. PC12 cells were exposed to UV light using various flash paradigms. After each exposure, pH was monitored for 2 minutes to quantify pH, acidification.
In our experiments PC12 cells were loaded with the ratiometric fluorescent dye DCFDA. DCFDA was utilized for measuring changes in the intracellular pH (pHi) of a cell over a broad pH range from 2.0 to 7.0 (FIG. 3A, 3B). In this embodiment of the invention, NBA (1 mM) was bath applied at room temperature to PC12 cells and allowed to passively diffuse across the cell membrane. Emitted fluorescence ratios were taken prior to photoactivation of NBA with a flash photolysis paradigm (FIG. 15). Emitted fluorescence ratios were also recorded after NBA was exposed to a wavelength of 350 nm UV light. Using fluorescence microscopy, we can optically record and quantify changes in pHi.

[2] = tested on: MCF-7 cells; test: Optical recording of pHi (DCFDA) in MCF-7 cells before/after UV flash photolysis of NBA; type: cell-based, human
Description: (§1) Optical Recording of pH, MCF-7. DCFDA stock solution was diluted to a concentration of 10 μM in a 3 mL rat aCSF solution. MCF-7 cells were flashed every 30 seconds at 495/440 nm for a duration of 900/700 ms, respectively, at 40× magnification and 2 seconds at each wavelength under the 10× magnification. […] Optical recording of pHi was monitored for a minimum of 10 minutes to represent a steady state.
(§2) NBA Load for Focal Acidification of MCF-7. Seventy-five μL of NBA stock solution was mixed in 3 mL of rat aCSF and bath applied to MCF-7 cells for 10 minutes. After bath application, cells were washed a minimum of three times with rat aCSF. MCF-7 cells were exposed to 60-30-60 UV light paradigm. After each exposure, pH was monitored for 2 minutes to quantify pHi acidification.

[3] = tested on: MDA-MB-231 cells; test: Optical recording of pHi (DCFDA) in MDA-MB-231 cells before/after UV flash photolysis of NBA; type: cell-based, human
Description: as §1, with “pHi MDA-MB-231.” for “pH, MCF-7.”, “MBA-MD-231” for “MCF-7”
as §2, with “MDA-MB231.” for “MCF-7.”, “MDA-MB-231” for “MCF-7”, “pH,” for “pHi”

[4] = tested on: PC12 cells; test: Cell death quantification PC12 (Annexin V Alexa Fluor 568); type: cell-based, Rat
Description: Apoptosis Indicator. The apoptosis indicator Annexin V Alexa Fluor 568 was stored in a solution containing 25 mM HEPES, 140 mM NaCl, 1 mM EDTA, pH 7.4, plus 0.1% bovine serum albumin (BSA). A 10 μL of stock Annexin V Alexa Fluor 568 was diluted in 2 mL of binding buffer. The binding buffer consisted of: 10 mM HEPES, 140 mM NaCl, and 2.5 mM CaCl2, at a pH of 7.4.
(§3) Cell Death Quantification PC12. One hour after the UV flash paradigm to induce intracellular acidosis, the cells were lightly washed and the media was replaced with the phosphatidylserine indicator Annexin V Alexa Fluor 568. This solution was made using 10 μL of the stock solution and diluted in 2 ml of rat aCSF. Fifteen minutes was allowed for membrane binding, then fluorescence was monitored for the next hour or until all cells were expressing apoptosis.
Control Experiments. Controls in each experiment were performed by moving 10 mm or more away from the UV or 980 nm exposed region. Recordings of pHi were performed to detect if NBA or the nanoparticle affected the cell or inadvertently uncaged hydrogens in the periphery of the plate. Detection of apoptosis and/or blebs was performed using Annexin V Alexa Fluor 568 and DCFDA optical recording. Control experiments were performed in the following conditions: UV alone, time alone, and NBA alone. Each one of the control experiments was performed for a minimum of 3 hours.

[5] = tested on: MCF-7 cells; test: Cell death quantification MCF-7 (blebbing and/or Annexin V); type: cell-based, human
Description: Apoptosis Indicator. The apoptosis indicator Annexin V Alexa Fluor 568 was stored in a solution containing 25 mM HEPES, 140 mM NaCl, 1 mM EDTA, pH 7.4, plus 0.1% bovine serum albumin (BSA). A 10 μL of stock Annexin V Alexa Fluor 568 was diluted in 2 mL of binding buffer. The binding buffer consisted of: 10 mM HEPES, 140 mM NaCl, and 2.5 mM CaCl2, at a pH of 7.4. Cell Death Quantification MCF-7. After UV flash paradigm, the presences of blebs were observed and recordings of the pH in the intrablebular inflationary space (pHb) were acquired using the DCFDA fluorescence as they expanded. […] We quantified blebs as cellular death based on previously published findings which described blebbing as an irreversible death process (Andrade et al., Biology of the Cell, 2010, 102(1):25-35). Control Experiments. Controls in each experiment were performed by moving 10 mm or more away from the UV or 980 nm exposed region. Recordings of pHi were performed to detect if NBA or the nanoparticle affected the cell or inadvertently uncaged hydrogens in the periphery of the plate. Detection of apoptosis and/or blebs was performed using Annexin V Alexa Fluor 568 and DCFDA optical recording. Control experiments were performed in the following conditions: UV alone, time alone, and NBA alone. Each one of the control experiments was performed for a minimum of 3 hours.

[6] = tested on: MDA-MB-231 cells; test: Cell death quantification MDA-MB-231 (blebbing and/or Annexin V); type: cell-based, human; details: in less than three hours following NBA flash photolysis
Description: as §3, with “MDA-MB-231.” for “PC12.”, “apoptosis. As with MCF-7 cells, we quantified blebs as cellular death based on previously published findings which described blebbing as an irreversible death process (Andrade et al., Biology of the Cell, 2010, 102(1):25-35).” for “apoptosis.”

[7] = tested on: MDA-MB-231 tumors; test: Tumor growth of MDA-MB-231-GFP tumors in nude mice after one-time NBA phototherapy; type: in vivo; details: one-time 0.1 ml 1 mM NBA into tumor + 405 nm 60-30-60 illumination, P<0.05
Description: We injected the aggressive triple negative breast cancer MDA-MB-231-GFP (2×10^6 cells) into the mammary fat pad of 5 week old female nude mice. Tumors appeared after approximately one week following injection. Treatment was initiated once the tumors reached and maintained a length of 5 mm for two consecutive days. The mice received a one-time treatment of either a control injection if 0.1 ml of aCSF to the tumor or 0.1 ml of NBA (1 mM) followed by photoactivation. The NBA/photoactivation treatment was conducted as follows: one hour after NBA injection, the animal was anesthetized (1.5-4% isoflurane) prior to the insertion of a 200 μm fiber optic cannula into the tumor mass. The interior of the tumor was illuminated with 405 nm light (80-85 mW) via a ceramic cannula using the same illumination paradigm which was effective in vitro, specifically 60 seconds of illumination, 60 seconds of no illumination, 30 seconds of illumination, 60 seconds of no illumination, and 60 seconds of illumination. This paradigm is referred to as a “60-30-60” illumination paradigm.
Tumors were measured daily in order to calculate changes in tumor volume using the formula: Tumor Volume(TV)=[…]
The percent change in tumor volume was calculated by normalizing the percent change to the tumor volume recorded on the day of treatment. […]

[8] = tested on: MDA-MB-231 tumors; test: Survival of nude mice with MDA-MB-231 tumors after one-time NBA phototherapy; type: in vivo
Description: The described inventive technique is effective in increasing the duration of survival in animals with cancer in vivo. […] NBA was injected into the established triple negative breast cancer MDA-MB-231 tumors of 6 week old nude mice. One hour was permitted to allow adequate diffusion of the NBA into the intracellular space of the cancer cells. Following this one-hour diffusion period, the tumors were exposed to 405 nm photo-activating light (85 mW) for a 60-30-60 excitation paradigm (described previously).
Following their one-time treatment of either NBA with photo-activation or control aCSF, mice were monitored and euthanized in accordance with the Humane Endpoints approved by the University of Texas at San Antonio Institutional Animal Care and Use Committee (IACUC). The control aCSF treated mice (n=4) survived for an average of 16.5±1.66 days from the day of treatment, with survival days from treatment ranging from 14 to 19 days. In contrast, the one-time NBA treated mice survived for 35.2±5.70 days from the day of treatment (FIG. 22). The NBA treated mice survival ranged from 18 to 50 days from treatment.

[9] = tested on: rat ventricular myocytes; details: NBA 1 mM, absence of UV exposure; cited from earlier work
[10] = tested on: in vitro tadpole brainstem; details: 10 μM NBA, entire in vitro tadpole brainstem; cited from earlier work

SMILES: O=Cc1ccccc1[N+](=O)[O-] [NBA, 2-nitrobenzaldehyde]
- Average pHi drop, first flash ([1]; PC12 cells (n=22), 60-30-60 UV flash paradigm, flash 1): 0.72
- Average pHi drop, second flash ([1]; PC12 cells (n=22), 60-30-60 UV flash paradigm, flash 2): 0.36
- Average pHi drop, third flash ([1]; PC12 cells (n=22), 60-30-60 UV flash paradigm, flash 3): 0.36
- Mean pHi before flash photolysis ([1]; PC12 cells, 1 mM NBA, 10 μM DCFDA, after NBA application and prior to photolysis): 7.55±0.025 and 7.55
- Mean pHi after flash photolysis ([1]; PC12 cells, 1 mM NBA, after 350 nm UV exposure): 6.37±0.03 and 6.37
- Mean change in pHi (Δ pHi) ([1]; PC12 cells, 1 mM NBA, flash photolysis): 1.18 pH units
- Average pHi drop, first flash ([2]; MCF-7 cells (n=13), 60-30-60 UV flash paradigm, flash 1): 0.68
- Average pHi drop, second flash ([2]; MCF-7 cells (n=13), 60-30-60 UV flash paradigm, flash 2): 0.35
- Average pHi drop, third flash ([2]; MCF-7 cells (n=13), 60-30-60 UV flash paradigm, flash 3): 0.59
- Mean pHi before flash photolysis ([2]; MCF-7 cells, 1 mM NBA, 10 μM DCFDA, before 60-30-60 UV flash paradigm): 7.38±0.13 and 7.38
- Mean pHi after flash photolysis ([2]; MCF-7 cells, 1 mM NBA, after 60-30-60 UV flash paradigm): 6.22±0.15 and 6.22
- Mean pHi before flash paradigm ([3]; MDA-MB-231 cells (n=38), loaded with NBA, before 60-30-60 UV flash): 6.47±0.06
- Mean Δ pHi ([3]; MDA-MB-231 cells, NBA, 60-30-60 UV flash): 3.68±0.18 pH units
- Mean pHi after flash paradigm ([3]; MDA-MB-231 cells, NBA, after 60-30-60 UV flash): 2.78±0.23
- Average apoptosis ([4]; NBA + UV flash photolysis): 84.0±1.33%
- Percentage of cells exhibiting apoptosis, NBA alone ([4]; NBA alone, no UV (n=47)): 2.1%
- Percentage of apoptosis, NBA only ([5]; MCF-7 cells exposed only to NBA, no UV): 2.3%
- Percentage of death within 2 hours ([5]; MCF-7 cells incubated in NBA and exposed to UV, within 2 hours): above 90%
- Average apoptosis over time ([5]; MCF-7 cells, 1 mM NBA + 60-30-60 UV flash): 98.3±0.3%
- Cell death [6]: 55.3%
- Duration of significant reduction in tumor volume vs aCSF control [7]: up to 13 days
- Mean survival from the day of treatment ([8]; one-time NBA + 405 nm (85 mW) 60-30-60 photo-activation, nude mice): 35.2 ± 5.70 days
- Increase in survivability vs control aCSF ([8]; one-time NBA photo-activation vs aCSF control, P=0.012): 113.3%
- Effect on diastolic Ca2+, cellular contraction, spatial pHi regulation [9]: did not alter
- Effect on spontaneous fictive respiratory motor output and central respiratory chemoreceptor responses [10]: no disruption
